Tests used:
Format in all cases: cell-based, human
[1] = system: SW620; experiment: MTS assay cell viability, 48 hours L-OHP exposure
Text: (§1) Ten human colorectal cancer cell lines (DLD-1, HCT15, HCT116, HT29, Lovo, LS174T, SW480, SW620, SW1116, and WiDr) were employed. HCT116 and HT29 were obtained from Kabushiki Kaisha Yakult Honsha. DLD-1, Lovo, SW480, SW1116, and WiDr were obtained from Dainippon Sumitomo Pharma Co., Ltd. HCT15 and LS174T were obtained from Cell Resource Center for Biomedical Research, Institute of Development, Aging and Cancer, Tohoku University. SW620 was obtained from Summit Pharmaceuticals International Corporation.
(§2) Cancer cells of each cell line were exposed to 0- to 1,000-μmol/L L-OHP for 48 hours and after drug exposure, cell viability was determined by means of an MTS assay (CellTiter96™ AQueous One Solution Cell Proliferation Assay, Promega). IC50 value (L-OHP concentration at which cell growth is inhibited by 50% as compared with L-OHP-non-treated sample) was calculated, and sensitivity of each cell line to L-OHP was evaluated by the IC50 value as an index.

[2] = system: DLD-1; experiment: MTS assay cell viability, 48 hours L-OHP exposure; settings: DLD-1, 48 hours exposure, read-out: IC50 value (L-OHP concentration at which cell growth is inhibited by 50%)
Text: as §1, §2

[3] = system: HT29; experiment: MTS assay cell viability, 48 hours L-OHP exposure; settings: HT29, 48 hours exposure, read-out: IC50 value (L-OHP concentration at which cell growth is inhibited by 50%)
Text: as §1, §2

[4] = system: SW1116; experiment: MTS assay cell viability, 48 hours L-OHP exposure; settings: SW1116, 48 hours exposure, read-out: IC50 value (L-OHP concentration at which cell growth is inhibited by 50%)
Text: as §1, §2

[5] = system: Lovo; experiment: MTS assay cell viability, 48 hours L-OHP exposure; settings: 48 hours exposure, read-out: IC50 value (L-OHP concentration at which cell growth is inhibited by 50%)
Text: as §1, §2

[6] = system: SW480; experiment: MTS assay cell viability, 48 hours L-OHP exposure; settings: SW480, 48 hours exposure, read-out: IC50 value (L-OHP concentration at which cell growth is inhibited by 50%)
Text: as §1, §2

[7] = system: LS174T; experiment: MTS assay cell viability, 48 hours L-OHP exposure
Text: as §1, §2

[8] = system: WiDr; experiment: MTS assay cell viability, 48 hours L-OHP exposure; settings: 48 hours exposure, read-out: IC50 value (L-OHP concentration at which cell growth is inhibited by 50%)
Text: as §1, §2

[9] = system: HCT116; experiment: MTS assay cell viability, 48 hours L-OHP exposure; settings: HCT116, 48 hours exposure, read-out: IC50 value (L-OHP concentration at which cell growth is inhibited by 50%)
Text: as §1, §2

[10] = system: HCT15; experiment: MTS assay cell viability, 48 hours L-OHP exposure
Text: as §1, §2

[11] = system: HCT116 and DLD-1 cells; experiment: CE-TOFMS metabolomic analysis of intracellular metabolites after exposure to L-OHP; settings: 10 μM L-OHP, 24-hour exposure
Method: Among the cell lines employed in Example 1, two human colorectal cancer cell lines (HCT116 and DLD-1) were employed. Cell culturing was performed by means of a φ100 mm/Tissue Culture Dish (IWAKI) with a medium (Dulbecco's modified Eagle's Medium (DMEM) containing 10% fetal bovine serum (product of Invitrogen) at 37° C. under 5% CO2 conditions.
The two colorectal cancer cells were exposed to L-OHP by changing the culture medium to a medium containing L-OHP at 10 μmol/L. The same culture was performed in an L-OHP-free medium (control group). After exposure to L-OHP (0 hr, 4 hr, 12 hr, 24 hr, and 48 hr), the cells were washed on ice with 5% mannitol (4° C.). Immediately thereafter, methanol (4° C., containing an internal standard) was added to the washed cells, to thereby inactivate present enzymes, and the cells were stored at −80° C. Separately, cells for cell count were provided in addition to the cells from which metabolites were extracted, and then subjected to the same treatment before performing cell count. The data were employed in correction of the cell counts. […]
Comprehensive analysis of intracellular metabolites was performed by means of a capillary electrophoresis-time-of-flight-type mass spectrometer (CE-TOFMS) (product of Agilent Technologies). […] Metabolites detected at m/z values of 50 to 1,000 were simultaneously quantitated.

[12] = system: HCT116; experiment: Sensitivity of colorectal cancer cells to 5-FU
[13] = system: DLD-1; experiment: Sensitivity of colorectal cancer cells to 5-FU

| Compound | sensitivity group of the cell line to L-OHP on the basis of the MTS assay [1] | IC50 [2] | IC50 [3] | IC50 [4] | IC50 [5] | IC50 [6] | sensitivity group of the cell line to L-OHP on the basis of the MTS assay [7] | IC50 [8] | IC50 [9] | sensitivity group of the cell line to L-OHP on the basis of the MTS assay [10] | ratio (HCT116/DLD-1) of IMP intracellular level after exposure relative to control group ([11]; IMP) | ratio (HCT116/DLD-1) of intracellular level after exposure relative to control group, each metabolite ([11]; dTMP, CMP, UMP, GMP, CDP, UDP, dCTP, CTP, UTP, GTP, NADP+, ATP and/or dGTP) | sensitivity of the cell line to 5-FU [12] | sensitivity of the cell line to 5-FU [13] |
| --- | --- | --- | --- | --- | --- | --- | --- | --- | --- | --- | --- | --- | --- | --- |
| O=C1[O][Pt]2([NH][C@@H]3CCCC[C@H]3[NH]2)[O]C1=O [L-OHP, (SP-4-2)-[(1R,2R)-cyclohexane-1,2-diamine-κN,κN′][ethanedioato (2-)-κO^1,κO^2]platinum] | high-sensitive | 16.9 ± 6.31 µM | 23.9 ± 9.29 µM | 26.4 ± 4.12 µM | 0.72 ± 0.12 µM | 0.65 ± 0.07 µM | low-sensitive | 17.3 ± 5.24 µM | 0.89 ± 0.33 µM | high-sensitive | 0.26 | ≥ 1.2 |  |  |
| O=c1[nH]cc(F)c(=O)[nH]1 [5-FU, fluorouracil] |  |  |  |  |  |  |  |  |  |  |  |  | high-sensitivity | low-sensitivity |

Reference: patent publication US9797884B2, “Marker for determination of sensitivity to anticancer agent” (KEIO UNIVERSITY, priority 2011, dated 2017)
